Experimental data taken from patent publication US20210052589A1, “COMPOUNDS FOR TREATING ALZHEIMER'S DISEASE” (Amabiotics, priority 2018, published 2021).

Columns and labels:
[1] = test system: Tau; test: Hyperphosphorylation of Tau in neuron cytoplasm (AT100, overlapping Tau/MAP-2) after Aβ1-42 intoxication; type: cell-based, rat
Method: (§1) Rat cortical neurons are cultured as described by Callizot et al., (2013) with modifications. Briefly pregnant female rat (Wistar) of 15 days of gestation are killed. Foetuses are collected and immediately placed in ice-cold L15 Leibovitz medium with a 2% penicillin (10,000 U/mL) and streptomycin (10 mg/ml) solution (PS) and 1% bovine serum albumin (BSA). Cortex are treated for 20 min at 37° C. with a trypsin- EDTA solution at a final concentration of 0.05% trypsin and 0.02% EDTA. The dissociation is stopped by addition of Dulbecco's modified Eagle's medium (DMEM) with 4.5 g/L of glucose, containing DNAse I grade II (final concentration 0.5 mg/ml) and 10% fetal calf serum (FCS). Cells are mechanically dissociated by three forced passages through the tip of a 10-ml pipette. Cells are then centrifuged at 515×g for 10 min at 4° C. The supernatant is discarded, and the pellet is resuspended in a defined culture medium consisting of Neurobasal medium with a 2% solution of B27 supplement, 2 mmol/litter of L-glutamine, 2% of PS solution, 10 ng/mL of brain-derived neurotrophic factor (BDNF), 2% of heat-inactivated horse serum, 2% of heat-inactivated FCS, 1 g/L of glucose, 1 mM of sodium pyruvate, and 100 μM of non-essential amino acids. Viable cells are counted in a Neubauer cytometer, using the trypan blue exclusion test. The cells are seeded at a density of 45,000 per well in 96-well plates (for immunostaining) precoated with poly-L-lysine and are cultured at 37° C. in an air (95%)-CO2 (5%) incubator. For 96 wells plates, only 60 wells are used. The wells of first and last lines and columns are not used (to avoid the edge effect) and are filled with sterile water. The medium is changed every 2 days.
(§2) On day 10 of culture, queuine is dissolved in the culture medium and pre-incubated with primary cortical neurons for 24H, before Aβ1-42 exposure. Then on day 11 of culture, the cortical neurons are intoxicated with AB solutions. The Aβ1-42 preparation is done following the procedure described by Callizot et al., (2013). Briefly, Aβ1-42 peptide are dissolved in the defined culture medium mentioned above, at an initial concentration of 40 μmol/L. This solution is gently agitated for 3 days at 37° C. in the dark and immediately used after being properly diluted in culture medium to the concentration used (5 μM, 0.5μM oligomers).
(§3) Aβ1-42 preparation is added to a final concentration of 5μM (0.5 μM oligomers, ABO) diluted in control medium in presence of queuine, for 72 hours.
Each compound is tested on 1 culture in a 96 well plate (6 wells per conditions). For 96 wells plates, only 60 wells are used. The wells of first and last lines and columns are not used (to avoid the edge effect) and are filled with sterile water. Queuine is added 24h before Aβ1-42 application. The following conditions are assessed:
(§4) 72 hours after Aβ1-42 application, the cell culture supernatant are collected cytokine quantification (e.g. TNFα) and the cortical neurons are fixed by a cold solution of ethanol (95%) and acetic acid (5%) for 5 min at −20° C. […]

[2] = test system: Rat cortical neurons; test: Neuron survival (number of MAP-2 positive neurons) after Aβ1-42 intoxication; type: cell-based; conditions: for survival of neurons: p<0.05
Method: as §1
as §2, with “oligomers). […]” for “oligomers).”
(§5) Each compound is tested on 1 culture in a 96 well plate (6 wells per conditions). […] The following conditions are assessed:
as §4

[3] = test system: TNF-α; test: TNFa release in a culture of cortical neurons and microglia after Aβ1-42 injury (ELISA); type: cell-based, rat; conditions: for TNFa (% of vehicle group): control 100.00, Aβ1-42 alone 126.75; for level of TNFα (in words): Aβ1-42 (5 μM)
Method: as §1, §2, §3
72 hours after Aβ1-42 application, the cell culture supernatant are collected cytokine quantification (e.g. TNFα) and the cortical neurons are fixed by a cold solution of ethanol (95%) and acetic acid (5%) for 5 min at −20° C. After permeabilization with 0.1% of saponin, cells are incubated for 2 hours with: • a) chicken polyclonal antibody antimicrotubule-associated-protein 2 (MAP-2) at dilution of 1/1000 in PBS containing 1% fetal calf serum and 0.1% of saponin (this antibody stains specifically cell bodies and neurites, allowing study of neuronal cell death and neurite network). • b) mouse monoclonal anti-tau phosphor (Thr212, Ser214) at the dilution of 1/100 in PBS containing 1% foetal calf serum and 0.1% of saponin. • c) rabbit polyclonal antibody anti-SIRP alpha/CD172a at dilution of 1/400 in PBS containing 1% fetal calf serum and 0.1% of saponin (this antibody stains specifically the microglia and is allow to evaluate the activation of the microglial cells).
In order to assess the activation of microglia in the cell culture, the levels of TNF-α are quantified in cell culture supernatant after 72h (end of the culture) by ELISA.

[4] = test system: Rat cortical neurons; test: Total neurite network (length of MAP-2 positive neurite) after Aβ1-42 intoxication; type: cell-based
Method: as §1
as §2, with “oligomers). […]” for “oligomers).”
as §5, §4

[5] = queuine 300 nM added 24h before Aβ1-42 (5 μM, 72 H), p<0.05
[6] = queuine 1 μM added 24h before Aβ1-42 (5 μM, 72 H), p<0.05
[7] = queuine 3 μM added 24h before Aβ1-42 (5 μM, 72 H), p<0.05
[8] = BDNF 50 ng/ml, Aβ1-42 (5 μM, 72 H)

7-(3,4-trans-4,5-cis-dihydroxy-1-cyclopenten-3-ylaminomethyl)-7-deazaguanine [queuine]
Tau hyperphosphorylation ([1]; queuine 100 nM added 24h before Aβ1-42 (5 μM, 72 H), p<0.05): restores the level of hyperphosphorylation of Tau
Tau hyperphosphorylation [1, 5]: restores the level of hyperphosphorylation of Tau
Tau hyperphosphorylation [1, 6]: restores the level of hyperphosphorylation of Tau
Tau hyperphosphorylation [1, 7]: restores the level of hyperphosphorylation of Tau
survival of neurons ([2]; queuine 100 nM added 24h before Aβ1-42 (5 μM, 72 H)): significantly restores the survival of neurons
survival of neurons ([2]; queuine 300 nM added 24h before Aβ1-42 (5 μM, 72 H)): significantly restores the survival of neurons
survival of neurons ([2]; queuine 1 μM added 24h before Aβ1-42 (5 μM, 72 H)): significantly restores the survival of neurons
TNFa (% of vehicle group) ([3]; Aβ1-42 (5 μM, 72 H) + queuine (300 nM)): 105.54 % of vehicle group
TNFa (% of vehicle group) ([3]; Aβ1-42 (5 μM, 72 H) + queuine (1 μM)): 87.33 % of vehicle group
TNFa (% of vehicle group) ([3]; Aβ1-42 (5 μM, 72 H) + queuine (3 μM)): 93.32 % of vehicle group
level of TNFα (in words) ([3]; queuine 300 nM, p<0.05): restores the level of TNFα
level of TNFα (in words) ([3]; queuine 1 μM, p<0.05): restores the level of TNFα
level of TNFα (in words) ([3]; queuine 3 μM, p<0.05): restores the level of TNFα
neurite network [4, 5]: significantly restores the neurite network
neurite network [4, 6]: significantly restores the neurite network
neurite network [4, 7]: significantly restores the neurite network

B1: BDNF: brain-derived neurotrophic factor, used at 50 ng/ml as positive control and reference compound (protein, UniProt P23560 19-247, looked up)
Neurotrophic factor BDNF …: APMKEANIRGQGGLAYPGVRTHGTLESVNGPKAGSRGLTSLADTFEHVIEELLDEDQKVRPNEENNKDADLYTSRVMLSSQVPLEPPLLFLLEEYKNYLDAANMSMRVRRHSDPARRGELSVCDSISEWVTAADKKTAVDMSGGTVTVLEKVPVSKGQLKQYFYETKCNPMGYTKEGCRGIDKRHWNSQCRTTQSYVRALTMDSKKRIGWRFIRIDTSCVCTLTIKRGR
Tau hyperphosphorylation [1, 8]: decreases Tau hyperphosphorylation
level neuronal staining for MAP-2 (number of cortical neurons) [2, 8]: restores the level neuronal staining for MAP-2
TNFa (% of vehicle group) ([3]; Aβ1-42 (5 μM, 72 H) + BDNF (50 ng/ml)): 102.14 % of vehicle group
level of TNFα (in words) ([3]; BDNF 50 ng/ml): decreases the level of TNFα
neurite network [4, 8]: restores the neurite network
